Test results from US9199941B2, “Pyrazole indanyl carboxamides” (BAYER CROPSCIENCE AG, priority 2012, dated 2015).

Tests used:
[1] = tested on: Uromyces appendiculatus; assay: In vivo preventive test on Uromyces appendiculatus (bean rust); conditions: 500 ppm, preventive spray, bean plants, grading 11 days after contamination
Experimental: Bean plants (“Saxa” variety), sown in starter cups on a 50/50 peat soil-pozzolana substrate and grown at 24° C., are treated at the 2-leaf stage (9 cm height) by spraying with the active ingredient prepared as described above. Plants, used as controls, are treated with the mixture of acetone/tween/DMSO/water not containing the active material. After 24 hours, the plants are contaminated by spraying the leaves with an aqueous suspension of Uromyces appendiculatus spores (150 000 spores per ml). […] Grading (% of efficacy) is carried out 11 days after the contamination, in comparison with the control plants.

[2] = tested on: Pyrenophora teres; assay: In vivo preventive test on Pyrenophora teres (net blotch on barley); conditions: 500 ppm, preventive spray, barley plants, incubated 48 hours then 12 days
Experimental: Barley plants (“Plaisant” variety), sown in starter cups on a 50/50 peat soil-pozzolana substrate and grown at 22° C., are treated at the 1-leaf stage (10 cm height) by spraying with the active ingredient prepared as described above. Plants, used as controls, are treated with the mixture of acetone/tween/DMSO/water not containing the active material. After 24 hours, the plants are contaminated by spraying the leaves with an aqueous suspension of Pyrenophora teres spores (12 000 spores per ml). The spores are collected from a 12-day-old culture.

[3] = tested on: Sphaerotheca fuliginea; assay: In vivo preventive test on Sphaerotheca fuliginea (powdery mildew on cucurbits); conditions: 500 ppm, preventive spray, gherkin plants, grading 12 days after contamination
Experimental: Gherkin plants (“Vert petit de Paris” variety), sown in starter cups on a 50/50 peat soil-pozzolana substrate and grown at 24° C., are treated at the Z11 cotyledon stage by spraying with the active ingredient prepared as described above. Plants, used as controls, are treated with the mixture of acetone/tween/DMSO/water not containing the active material. After 24 hours, the plants are contaminated by spraying the cotyledons with an aqueous suspension of Sphaerotheca fuliginea spores (100 000 spores per ml). The spores are collected from infected plants. The contaminated gherkin plants are incubated at about 20° C. and at 70-80% relative humidity. Grading (% of efficacy) is carried out 12 days after the contamination, in comparison with the control plants.

[4] = tested on: Septoria tritici; assay: In vivo preventive test on Septoria tritici (leaf spot on wheat); conditions: 500 ppm, preventive spray, wheat plants, grading 24 days after contamination
Experimental: Wheat plants (“Scipion” variety), sown in starter cups on a 50/50 peat soil-pozzolana substrate and grown at 22° C., are treated at the 1-leaf stage (10 cm height) by spraying with the active ingredient prepared as described above. Plants, used as controls, are treated with the mixture of acetone/tween/DMSO/water not containing the active material. After 24 hours, the plants are contaminated by spraying the leaves with an aqueous suspension of cryopreserved Septoria tritici spores (500 000 spores per ml). […] Grading (% of efficacy) is carried out 24 days after the contamination, in comparison with the control plants.

[5] = tested on: Alternaria brassicae; assay: In vivo preventive test on Alternaria brassicae (leaf spot on radish); conditions: 500 ppm, preventive spray, radish plants, grading 6 days after contamination
Experimental: Radish plants (“Pernod Clair” variety), sown in starter cups on a 50/50 peat soil-pozzolana substrate and grown at 17° C., are treated at the cotyledon stage by spraying with the active ingredient prepared as described above. Plants, used as controls, are treated with the mixture of acetone/tween/DMSO/water not containing the active material. After 24 hours, the plants are contaminated by spraying the cotyledons with an aqueous suspension of Alternaria brassicae spores (50 000 spores per ml). The spores are collected from a 15-day-old culture. […] Grading (% of efficacy) is carried out 6 days after the contamination, in comparison with the control plants.

[6] = tested on: Phakopsora pachyrhizi; assay: In vivo Phakopsora test (soybeans) / preventive; conditions: 10 ppm of active ingredient, evaluated 7 days after the inoculation
Experimental: (§1) [table] To produce a suitable preparation of active compound, 1 part by weight of active compound is mixed with the stated amounts of solvent and emulsifier, and the concentrate is diluted with water to the desired concentration. To test for preventive activity, young plants are sprayed with the preparation of active compound at the stated rate of application. […] The plants remain in the incubation cabinet at approximately 24° C. and a relative atmospheric humidity of approximately 80% and a day/night interval of 12 h.

[7] = tested on: Venturia inaequalis; assay: In vivo Venturia test (apples) / preventive; conditions: 100 ppm of active ingredient, evaluated 10 days after the inoculation
Experimental: as §1, with “are then placed” for “remain”, “a greenhouse” for “the incubation cabinet”, “21°” for “24°”, “90%.” for “80% and a day/night interval of 12 h.”

[8] = tested on: Blumeria graminis fsp. hordei; assay: In vivo Blumeria test (barley) / preventive; conditions: 500 ppm of active ingredient, evaluated 7 days after the inoculation
Experimental: [table] To produce a suitable preparation of active compound, 1 part by weight of active compound or active compound combination is mixed with the stated amounts of solvent and emulsifier, and the concentrate is diluted with water to the desired concentration. To test for preventive activity, young plants are sprayed with the preparation of active compound or active compound combination at the stated rate of application. After the spray coating has been dried, the plants are dusted with spores of Blumeria graminis fsp. hordei. The plants are placed in the greenhouse at a temperature of approximately 18° C. and a relative atmospheric humidity of approximately 80% to promote the development of mildew pustules.

[9] = tested on: Fusarium nivale (var. majus); assay: In vivo Fusarium nivale (var. majus) test (wheat) / preventive; conditions: 500 ppm of active ingredient, evaluated 5 days after the inoculation
Experimental: [table] To produce a suitable preparation of active compound, 1 part by weight of active compound or active compound combination is mixed with the stated amounts of solvent and emulsifier, and the concentrate is diluted with water to the desired concentration. To test for preventive activity, young plants are sprayed with the preparation of active compound or active compound combination at the stated rate of application. After the spray coating has been dried, the plants are slightly injured by using a sandblast and afterwards they are sprayed with a conidia suspension of Fusarium nivale (var. majus).

[10] = tested on: Botrytis cinerea; assay: In vivo preventive test on Botrytis cinerea (grey mould), gherkin; conditions: 500 ppm, preventive spray, gherkin plants, grading 4 to 5 days after contamination
Experimental: Gherkin plants (“Vert petit de Paris” variety), sown in starter cups on a 50/50 peat soil-pozzolana substrate and grown at 24° C., are treated at the Z11 cotyledon stage by spraying with the active ingredient prepared as described above. Plants, used as controls, are treated with the mixture of acetone/tween/DMSO/water not containing the active material. After 24 hours, the plants are contaminated by spraying the cotyledons with an aqueous suspension of cryopreserved Botrytis cinerea spores (50 000 spores per ml). The spores are suspended in a nutrient solution composed of 10 g/L of PDB, 50 g/L of D-Fructose, 2 g/L of NH4NO3 and 1 g/L of KH2PO4. The contaminated gherkin plants are incubated at 17° C. and at 90% relative humidity. Grading (% of efficacy) is carried out 4 to 5 days after the contamination, in comparison with the control plants.

[11] = tested on: Puccinia recondita; assay: In vivo preventive test on Puccinia recondita (brown rust on wheat); conditions: 500 ppm, preventive spray, wheat plants, grading 12 days after contamination
Experimental: Plants, used as controls, are treated with the mixture of acetone/tween/DMSO/water not containing the active material. After 24 hours, the plants are contaminated by spraying the leaves with an aqueous suspension of Puccinia […] spores (100 000 spores per ml). […] Grading (% of efficacy) is carried out 12 days after the contamination, in comparison with the control plants.

[12] = tested on: Phytophthora infestans; format: in vivo; conditions: 500 ppm, preventive spray, tomato plants, grading 5 days after contamination
[13] = log P by HPLC on reversed phase columns (EEC directive 79/831 Annex V.A8); format: physicochemical; conditions: Table 1, compounds of formula (I); method [a]: LC-MS at pH 2.7, 0.1% formic acid in water / acetonitrile
[14] = tested on: Pyricularia oryzae; format: in vivo; conditions: 500 ppm, preventive spray, rice plants, grading 6 days after contamination

## CC1CC(C)c2c(NC(=O)c3cn(C)nc3C(F)F)cccc21 (stereo not shown) [Example 7]
[1]
  Eff. %: 100%
[2]
  Eff. %: 92%
[3]
  Eff. %: 100%
[4]
  Eff. %: 93%
[5]
  Eff. %: 100%
[6]
  Eff. %: 100%
[7]
  Eff. %: 100%
[8]
  Eff. %: 94%
[9]
  Eff. %: 100%
[10]
  Eff. %: 100%
[11]
  Eff. %: 100%
[12]
  Eff. %: 99%
[13]
  logP: 3.04[a]

## CC1CC(C(C)C)c2cccc(NC(=O)c3cn(C)nc3C(F)F)c21 (stereo not shown) [Example 1]
[1]
  Eff. %: 100%
[2]
  Eff. %: 81%
[3]
  Eff. %: 100%
[6]
  Eff. %: 100%
[8]
  Eff. %: 80%
[9]
  Eff. %: 86%
[11]
  Eff. %: 100%
[13]
  logP: 3.74[a]
[14]
  Eff. %: 93%
